# From patent US20230063457A1, “DNA-PK INHIBITING COMPOUNDS” (Provincial Health Services Authority, priority 2019, published 2023)
# Columns and labels:
# DNA-PK kinase = DNA-PK kinase (Homo sapiens, UniProt P78527); assay: Inhibition of DNA-PK kinase activity (ADP-Glo); format: biochemical; settings: averaged values over all measurements on all batches; 150 μM ATP, 1 hour at 25° C.
# Protocol: Inhibition of DNA-PK Kinase Activity Assay buffer was 50 mM Hepes pH 7.5 containing 0.1 mg/ml BSA (albumin from bovine serum), 50 μM DTT (dithiothreitol), 20 mM MgCl2 and 10 μg/ml calf thymus DNA (activation buffer). Kinase reaction was carried out in OptiPlate 384 plates (PerkinElmer 6007299). All compounds tested were dissolved in dimethyl sulfoxide (DMSO) and further dilutions were made in assay buffer. Final DMSO concentration was 1% (v/v). Pre-incubation consisted of compound (1% DMSO in control and blank wells) and 24 ng/well DNA-PK kinase to allow the compounds to bind the enzyme (with buffer in the blank wells) for 15 minutes; after this time 150 μM Adenosine-5′-triphosphate (ATP) and 0.2 μg/μl DNA-PK substrate were added to commence the kinase reaction. Incubations were carried out for 1 hour at 25° C. Kinase activity was determined by using ADP-Glo™ reagent from Promega according to the manufacturer's instructions. The light generated was measured using a luminometer (EnVision, PerkinElmer). Signal obtained in the wells containing blank samples was subtracted from all other wells and IC50 values were determined by fitting a sigmoidal curve to % inhibition of control versus Log10 compound concentration.
# [1] = biological target: T1, Phospho-DNA-PK in FaDu Cells (Homo sapiens, UniProt P78527); assay: Effect of compounds on phospho-DNA-PK in FaDu cells (MesoScale sandwich immunoassay); format: cell-based; settings: 1 hour pre-incubation, 1 μg/ml Neocarzinostatin 2 hours, averaged values, read-out: MSD FaDu IC50
# T1 construct: host or cells: FaDu
# Protocol: Effect of Compounds on Phospho-DNA-PK in FaDu Cells
# All compounds tested were dissolved in DMSO and further dilutions were made in culture medium. Final DMSO concentration was 0.3% (v/v). The human FaDu cells (ATCC) were cultured in MEM medium supplemented with Glutamax and 10% fetal calf serum (PAA). Cells were routinely maintained at densities of 0.2×10^6 cells per ml at 37° C. in a humidified 5% CO2, 95% air atmosphere. Cells were passaged twice a week, splitting back to obtain the low density. Cells were seeded in 96 well plates (Corning 3904) at 1×10^6 cells per ml media in a volume of 50 μl per well. Seeded cells were incubated at 37° C. in a humidified 5% CO2, 95% air atmosphere for 24 hours. Compounds were added (25 μl) to the cells and pre-incubated for 1 hour. 1 μg/ml DNA-damaging agent Neocarzinostatin (NCS) was added (25 μl) to a final volume of 100 μl and incubated for 2 hours at 37° C. in a humidified 5% CO2, 95% air atmosphere. After this period of time plates were removed from the incubator and the 100 μl dilutions were removed from the wells gently, prior to the addition of 75 μl cold RIPA lysis buffer with protease and phosphatase inhibitors to achieve the cells lysis, followed by shaking on a plate shaker at 4° C. for 30 minutes. At the end of this incubation, lysate was assessed for phospho-DNA-PK levels by sandwich immune-assay carried out in anti-mouse antibody coated MesoScale plates. […] Signal obtained in the wells containing blank samples was subtracted from all other wells and IC50 values were determined by fitting a sigmoidal curve to % inhibition of control versus Logo compound concentration.
SMILES,IC50 (DNA-PK kinase) [nM],IC50 [1] [nM]
Cn1ncnc1[C@H]1CC[C@@H](Oc2nc(N3CCOCC3)cc3ncccc23)CC1 [Example 56],12,238
c1cnc2cc(N3CCOCC3)nc(O[C@H]3CC[C@@H](c4ncc[nH]4)CC3)c2c1 [Example 75],5,57
c1cnc(N2CCC3CN(c4nc(N5CCOCC5)cc5ncccc45)CC32)nc1 (centres unmarked) [Example 17],148,4450
c1cnc(N2CCC3(CCN(c4nc(N5CCOCC5)cc5ncccc45)C3)C2)nc1 (centres unmarked) [Example 22],198,1550
C[C@@H]1COCCN1c1cc2ncccc2c(O[C@H]2CC[C@@H](c3nc[nH]n3)CC2)n1 [Example 69],261,5050
c1cnc2cc(N3CCOCC3)nc(O[C@H]3CC[C@@H](n4cncn4)CC3)c2c1 [Example 80],7,240
C[C@@H]1CN(c2cc3ncccc3c(O[C@H]3CC[C@@H](c4nc[nH]n4)CC3)n2)CCO1 [Example 66],3,265
N#C[C@H]1CC[C@@H](Oc2nc(N3CCOCC3)cc3ncccc23)CC1 [Example 4],37,1830
c1cnc2cc(N3CCOCC3)nc(OC[C@H]3CC[C@@H](c4ncn[nH]4)CC3)c2c1 [Example 73],55,1730
c1cnc2cc(N3CCOCC3)nc(N[C@H]3CC[C@@H](c4nnc[nH]4)CC3)c2c1 [Example 58],27,1590
c1cnc(NC2CCC3CN(c4nc(N5CCOCC5)cc5ncccc45)CC32)nc1 (centres unmarked) [Example 13],71,2840
Cn1cnc([C@H]2CC[C@@H](Oc3nc(N4CCOCC4)cc4ncccc34)CC2)n1 [Example 72],11,218
CN(C)S(=O)(=O)n1ccnc1C1CCN(c2nc(N3CCOCC3)cc3ncccc23)CC1 [Example 14],73,4470

# Other lines, results leading:
IC50 (DNA-PK kinase) [nM],IC50 [1] [nM],SMILES
15,724,NC(=O)c1ccnc(NCC2CCN(c3nc(N4CCOCC4)cc4ncccc34)CC2)n1 [Example 99]
125,2890,C[C@H]1CN(c2ncn[nH]2)CC[C@H]1Oc1nc(N2CCOCC2)cc2ncccc12 [Parent compound 161]
50,3020,Fc1cnc(NCC2CCN(c3nc(N4CCOCC4)cc4ncccc34)CC2)nc1 [Example 104]
69,3380,N#Cc1ccnc(NCC2CCN(c3nc(N4CCOCC4)cc4ncccc34)CC2)n1 [Example 108]
52,11400,CN(C)C(=O)c1ccnc(NCC2CCN(c3nc(N4CCOCC4)cc4ncccc34)CC2)n1 [Example 106]
4,190,Cn1cc([C@H]2CC[C@@H](Oc3nc(N4CCOCC4)cc4ncc(O)cc34)CC2)cn1 [Example 166]
143,3520,FC(F)(F)c1cnc(NCC2CCN(c3nc(N4CCOCC4)cc4ncccc34)CC2)nc1 [Example 121]
185,4360,c1ccc(NCC2CCN(c3nc(N4CCOCC4)cc4ncccc34)CC2)nc1 [Example 122]
2,134,Oc1cnc2cc(N3CCOCC3)nc(O[C@H]3CC[C@@H](n4cc(F)cn4)CC3)c2c1 [Example 163]
112,2030,CCOC(=O)c1cnc(NCC2CCN(c3nc(N4CCOCC4)cc4ncccc34)CC2)nc1 [Example 112]
45,3700,N#Cc1cnc(NCC2CCN(c3nc(N4CCOCC4)cc4ncccc34)CC2)nc1N [Example 103]
44,1310,c1cnc(N2CCC(COc3nc(N4CCOCC4)cc4ncccc34)CC2)nc1 [Example 129]
